Laboratory results reported in article PMC9737972, “Dual LSD1 and HDAC6 Inhibition Induces Doxorubicin Sensitivity in Acute Myeloid Leukemia Cells” (Cancers, 2022).

How the values were obtained:
THP-1 cells [1] = assay: Annexin V/7-AAD staining (flow cytometry); assay type: cell-based; conditions: sublethal concentration (5 μM)
Experimental: Treated cells were centrifuged at 300× g for 5 min, and the pellet was resuspended with 1% FBS in PBS (5 × 10^5 cells/mL). Annexin V dye (Merck Millipore, Burlington, MA, USA, MCH100105) was mixed with the cell suspension in a 1:1 ratio and the mixture incubated at RT for 20 min.

[2] = system: LSD1 and HDAC substrates in THP-1 cells; assay: Western blot of methylation and acetylation levels of LSD1 and HDAC substrates; assay type: cell-based; conditions: 4 μM
THP-1 cells [3] = assay: Caspase 3/7 and 7-AAD staining (flow cytometry); conditions: sublethal concentration (5 μM)
LSD1 = LSD1 (Homo sapiens, UniProt O60341); assay: Cellular thermal shift assay (CETSA), LSD1; assay type: cell-based; design: endogenous in cells; host or cells: THP-1; conditions: THP-1 cells, 1 h; 4 μM (methods, Figure 2), Figure S14 legend 500 nM
Experimental: THP-1 cells, 1 × 10^7 cells at a density of 1 × 10^6 cells/mL, were treated with 4 μM of test compounds (1 h, 37 °C, 5% CO2). Cells were centrifuged, and the pellet was resuspended with 1 × Phosphate Buffer Saline (Gibco, Grand Island, NY, USA, #10010023) containing 1 × Protease Inhibitor Cocktail (Cell Signaling Technology, Beverly, MA, USA, #5871) and 1 mM phenylmethylsulfonyl fluoride (PMSF, Sigma Aldrich, St. Louis, MO, USA, #10837091001). The suspension volume was divided equally and heated for 3 min at 43–64 °C in a T100 Thermal Cycler (Bio-rad, Hercules, CA, USA). For protein extraction, cells were snap-frozen using liquid nitrogen, thawed twice (25 °C, 1 min), then centrifuged (20,000× g, 15 min, 4 °C). Following centrifugation, protein containing supernatants were denatured at 70 °C for 10 min and loaded on SDS-PAGE gels (Bio-Rad, Hercules, CA, USA, 161-0317). After electrophoresis (100 V and 60 min), proteins were transferred onto PVDF membrane (Bio-Rad #1620177) at 200 mA for 180 min and immunoblotted with primary antibodies (1:10,000 dilution for anti-LSD1 Antibody ab129195 [EPR6825], 1:1000 dilution for Anti-HDAC6 Antibody CST 7558, 1:1000 dilution for Anti-HDAC1 Antibody ab53091, 1:1000 dilution for Anti-HDAC8 Antibody ab187139, 1:5000 dilution for Anti-beta Actin Antibody ab8227) overnight at 4 °C. The next day, membranes were incubated with HRP-conjugated secondary antibodies (1:5000 dilution for Abcam, Cambridge, UK, ab205718) for 1 h at room temperature. The signal was detected with BIORAD Chemi-Doc XRS+ System and by using Immobilon Forte Western HRP Substrate (WBLUF0500).

normal RPE-1 cells = assay: Cell viability of normal RPE-1 cells (CTG); assay type: cell-based; conditions: 120 h
MDA-MB-231 = assay: Wound healing assay, MDA-MB-231; assay type: cell-based; conditions: 4 μM, 72 h, 1% FBS
Experimental: Figure S20. Wound healing assay with iDual and ricolinostat. (A) MDA-MB-231 and (B) DU-145 […]
and ricolinostat for 72 h cells grown in relative medium with (1%) FBS conditions. Wound healing is photographed with Nikon Eclipse TS 100 microscope. Wound/healed area is quantified using Image […]

K-562 = assay: Cell Titer-Glo cell viability, K-562; assay type: cell-based; conditions: Homo sapiens, K562; 120 h, ± standard deviation, three biological repeats; read-out: IC50 cell viability K-562
C-terminal His-tag-HDAC8 = target: T1, C-terminal His-tag-HDAC8 (Homo sapiens, UniProt Q9BY41); assay: HDAC-Glo I/II enzyme assay, HDAC8; assay type: biochemical; conditions: ± standard error, three independent measurements
T1 construct: His (C); purchased BPS Bioscience 50008
T1 sequence (Q9BY41 1-377): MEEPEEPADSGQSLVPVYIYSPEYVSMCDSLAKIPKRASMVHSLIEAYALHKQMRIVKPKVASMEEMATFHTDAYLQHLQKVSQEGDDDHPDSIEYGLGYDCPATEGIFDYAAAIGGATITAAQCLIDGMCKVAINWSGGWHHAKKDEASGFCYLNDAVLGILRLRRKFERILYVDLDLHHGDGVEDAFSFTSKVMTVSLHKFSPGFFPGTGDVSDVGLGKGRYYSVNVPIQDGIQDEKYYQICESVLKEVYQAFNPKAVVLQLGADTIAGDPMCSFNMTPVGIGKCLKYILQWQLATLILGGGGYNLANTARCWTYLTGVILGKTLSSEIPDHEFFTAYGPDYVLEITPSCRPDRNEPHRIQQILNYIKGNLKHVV

THP-1 = assay: Cell Titer-Glo cell viability, THP-1; assay type: cell-based; conditions: Homo sapiens, THP-1; 120 h, ± standard deviation, three biological repeats; read-out: IC50 cell viability THP-1
THP-1 cells [4] = assay: RT-qPCR gene expression in THP-1 cells; assay type: cell-based; conditions: for p21 mRNA expression: THP-1 cells, 1 μM, 24 h
Experimental: NucleoSpin™ RNA Plus Isolation Kit (Macherey Nagel™, Dueren, Germany, 740955.50) and M-MLV Reverse Transcriptase kit (Thermo Fisher Scientific, Waltham, MA, USA, #28025013) protocols were employed for RNA isolation and cDNA synthesis, respectively, with 500 ng of RNA converted to cDNA for each sample. Gene expression levels were quantified with qRT–PCR method using a LightCycler 480 SYBR Green I Master (Roche Diagnostics, Penzberg, Germany, #50-720-3180) and normalized to β-actin or GAPDH. Briefly, 10 ng of cDNA template was amplified using 10 μL LightCycler 480 SYBR Green I Master (Roche Diagnostics), and gene-specific primers (Table S1) mixed in a final volume of 20 μL. The samples were incubated at 95 °C for 5 minutes, followed by 40 cycles of 95 °C for 10 seconds, 55 °C for 30 seconds, and 72 °C for 1 second. The relative amounts of gene expressions were calculated with the 2^(−ΔΔCT) method. All analyses were performed in duplicates and three biological replicas.
Figure 4 Assessment of biological activity through changes in methylation or acetylation and cell differentiation (A–C). Colored graphs illustrate epidrug targets and visualize expected outcomes upon target inhibition. Blue cylinders represent histone octomers (A,B) and green tubes represent microtubules (C). […] Histone methylation, histone acetylation, and α-tubulin acetylation levels were quantified from Western blot band intensities (Figure S18). Full Western blot images can be found in Figure S30. (D,E) Expression levels of mRNA were measured by RT-qPCR analysis and were normalized to two housekeeping genes, β-actin and GAPDH, for p21 and CD11b and CD86. […] Relative expression was determined with the 2(^−ΔΔCT) method, and the data are represented as the average ± standard error of the mean of two biological repeats with technical duplicates. (* p < 0.05, ** p < 0.01 student t-test). Illustrations were generated in BioRender.com.

For O=C(NO)c1ccc(CN2CCC(CN[C@@H]3C[C@H]3c3ccccc3)CC2)cc1 (relative stereo) [iDual], the “apoptosis by annexin V/7-AAD staining, compound alone” value (THP-1 cells [1]) was “did not induce apoptosis”, the “levels of the histone substrate H3K4me2” value ([2]; 24 h) was “increase” and the “nuclear histone H3 acetylation (H3K18ac and H3K27ac levels), change vs DMSO” value ([2]; 24 h (ricolinostat 0.75 μM or 4 μM)) was “two-fold”. For the same molecule, the “apoptosis by caspase activity, compound alone” value (THP-1 cells [3]) was “did not induce apoptosis”, the “thermal stabilization of LSD1 (CETSA)” value (LSD1) was “increased thermal stability” and the “toxicity on normal RPE-1 cells” value (normal RPE-1 cells) was “no significant toxicity”. For the same molecule, the “wound healing capacity MDA-MB-231” value (MDA-MB-231) was “slowed down”, the IC50 (K-562) was 16.6 ± 2.7 µM and the IC50 (C-terminal His-tag-HDAC8) was 0.29 ± 0.04 µM. The IC50 (THP-1) was 16.3 ± 5.4 µM, the ATM expression increase (THP-1 cells [4]; THP-1, 5 μM, 72 h) was “~ two-fold” and the ATR expression increase (THP-1 cells [4]; THP-1, 5 μM, 72 h) was “~ two-fold”. For the same molecule, the “expression of a panel of ABC transporters” value (THP-1 cells [4]; THP-1, 5 μM, 72 h) was “no decrease”, the “expression of doxorubicin sensitizer genes (AGPAT9, ALOX5, BTG1, HIPK2, IFI44L, LRP1)” value (THP-1 cells [4]; THP-1, 5 μM, 72 h, all targets of Table 3 except Wnt7B) was “upregulated” and the Rad51 expression increase (THP-1 cells [4]; THP-1, 5 μM, 72 h, p ≤ 0.001) was “three-fold”. For the same molecule, the “p21 mRNA expression” value (THP-1 cells [4]) was “increased”.

O=C(NO)c1ccc(CN2CCC(CNC3(c4ccccc4)CC3)CC2)cc1 [iHDAC6] showed an IC50 (K-562) of 17.6 ± 1.6 µM, an IC50 (C-terminal His-tag-HDAC8) of 0.45 ± 0.07 µM and an IC50 (THP-1) of 9.7 ± 2.4 µM. For the same molecule, the “p21 mRNA expression” value (THP-1 cells [4]) was “increased”.
